Experimental data from US20170273906A1, “TARGETED LIPOSOMES ENCAPSULATING IRON COMPLEXES AND THEIR USES” (Ramot at Tel-Aviv University Ltd., priority 2014, published 2017).

Columns and labels:
RAW264.7 = assay: Cell viability (XTT and SRB), RAW264.7; type: cell-based, mouse; settings: hemin 50 μg/ml, 24 hours
Method: (§1) For evaluating the effect of Hemin/HA-L on cancer cells, the liposomes prepared as described above were used. The only difference was in the amount of dry liposome forming lipid powder used in the “cancer aspect”. Specifically, in the following anti-cancer aspect, for rehydration of the hemin, higher amounts of the powder were used to reach a liposome concentration of 10-20 mM lipid.
(§2) The impact of hemin/HA-L at high liposome concentrations on cell viability was tested on five cell lines and compared to the same dose of free hemin, as well as to the same liposomal dose of drug-free HA-L.
(§3) Three of the cell lines originated from human cancers: MDA-MB-231 and MCF-7 from breast cancer and NCI/ADR-Res (abbreviated to NAR) from ovarian cancer. The RAW264.7 cell line is from mouse peritoneal macrophages, and the COS-7 cell line is noncancerous. […] MCF-7 is known to be sensitive to chemotherapeutic drugs, whereas NAR is known to be highly resistant to chemotherapeutic drugs, in the multi-drug resistant mechanism operating by the extrusion pumps of the ABC superfamily of transporters.
(§4) The Results of treating the five cell lines with hemin/HA-L, hemin, drug-free HA-L or control (i.e. untreated) for 24 hours, are shown in Tables 2 and 3, for hemin doses (free or liposomal) of 25 μg/ml and 50 μg/ml, respectively. Cell viability was evaluated by two independent methods: XTT and SRB.

NAR xenografts = assay: Mouse tumor model, tumor volume; type: in vivo; settings: tail vein, 3 injections a week apart; 2 mpk hemin and/or 125 mpk lipid; follow up two weeks after last injection; FIG. 17B
Method: The experimental details and design were as follows: Hsd:Athymic Nude Foxn1nu female mice (8 weeks old, 25 gr.) were inoculated with NAR cells (6.5*10^6 cells/100 μl HBSS), to the flank. Treatment was initiated at tumor volumes of 150-180 mm^3. There were three treatment groups and in all three the solvent was HBSS: (1) mice injected with drug-free HA-L^hi at the dose of 125 mpk lipid. (2) mice injected with free hemin at the dose of 2 mpk and (3) mice injected with hemin/HA-L^hi at the respective doses of 2 mpk (hemin) and 125 mpk (lipid). The injections were to the tail vein, and the injection volume was 200 μl. Each mice was given 3 injections spaced a week apart. Follow up was by animal weight and tumor volume (measured by caliper), up to two weeks after the last injection.

[1] = system: Mouse Model of Myocardial Infarction (MI); assay: Histological analysis of infarct size (hematoxylin and eosin), 30 days after MI; type: in vivo; settings: FIG. 13E
Description: (§5) Twelve week-old female Balb/C mice (20 gr.) were anesthetized with 2% isoflurane, and were surgically opened by left thoractomy through the fourth intercostal space to expose the beating heart. To induce MI, the left main coronary artery was permanently occluded with an intramural suture.
The imaging results of treatment with Hemin/HA-L (FIG. 13A), free hemin (FIG. 13B), empty liposomes (FIG. 13C) and saline (FIG. 13D) were confirmed by histological analysis, 30 days after MI. […] Noticeably, empty liposomes and free hemin treatments were also associated with a decreased scar tissue (by 40% and 43%), compared with saline (FIG. 13E). Overall, the presented findings indicate that hemin/HA-L is a promising agent to modulate and resolve inflammation following MI by enhancing healing and repair processes.

HO-1 [2] = assay: HO-1 expression in LPS-activated macrophages; type: cell-based, mouse; settings: LPS 24 hours, then three days in culture; FIG. 1E
Method: III. Further, the effect of hemin/HA-LP on TNF-α secretion levels from LPS stimulated RAW264.7 macrophages, on IL-12 cytokine secretion from peritoneal macrophages stimulated with LPS for 24 hours, and expression of HO-1 expression were measured. In addition, the effect of hemin/HA-L on macrophage inflammatory and anti-inflammatory properties was evaluated. First, TNF-α secretion levels from LPS stimulated RAW264.7 macrophages was measured (FIG. 1C, “LP” denoting liposome). […] Next, mouse peritoneal macrophages were stimulated with LPS for 24 hours. After LPS removal, the cells were treated with either hemin/HA-LP, empty HA-LP, free hemin or saline.

[3] = system: LPS stimulated RAW264.7 macrophages; assay: TNF-α secretion from LPS stimulated macrophages; type: cell-based, mouse; settings: hemin dose of 50 μg/ml, FIG. 1C
Method: III. Further, the effect of hemin/HA-LP on TNF-α secretion levels from LPS stimulated RAW264.7 macrophages, on IL-12 cytokine secretion from peritoneal macrophages stimulated with LPS for 24 hours, and expression of HO-1 expression were measured. In addition, the effect of hemin/HA-L on macrophage inflammatory and anti-inflammatory properties was evaluated. First, TNF-α secretion levels from LPS stimulated RAW264.7 macrophages was measured (FIG. 1C, “LP” denoting liposome). […] Next, mouse peritoneal macrophages were stimulated with LPS for 24 hours. After LPS removal, the cells were treated with either hemin/HA-LP, empty HA-LP, free hemin or saline. […] The anti-inflammatory activity of hemin was evaluated in vitro, in the established cell line of mouse peritoneal macrophages RAW264.7. Anti-inflammatory treatment was measured by reduction in secretion of the pro-inflammatory cytokine TNF-α, in LPS-activated macrophages.

MDA-MB-231 = assay: Cell viability (XTT and SRB), MDA-MB-231; type: cell-based, human; settings: 24 hours
Method: as §1, §2, §3, §4

COS-7 = assay: Cell viability (XTT and SRB), COS-7; type: cell-based; settings: 24 hours
Method: as §1, §2, §3, §4

NCI/ADR-Res = assay: Cell viability (XTT and SRB), NCI/ADR-Res; type: cell-based, human; settings: 24 hours
Method: as §1, §2, §3, §4
(§6) To this end, NCI/ADR-Res (NAR) cells were first tested with drug-free regular liposomes and drug-free HA-L, at three liposome doses—4 mM, 10 mM, and 21 mM—lipid, with untreated cells serving as controls. The experiments were performed in 24-well plates, treatment was for 24 hours, and upon termination the active intracellular HO-1 was determined using a commercial kit and following the kit's instructions. Parallel wells were used to evaluate cell viability using the SRB method. The results are presented in FIG. 14 (average of 6 wells; Statistical significance was evaluated by student t test (two tail, unequal variance) for RL vs. control and for HA-L vs. control. *p<0.05, **p<0.003, ***p<0.0001).

peritoneal macrophages = assay: Peritoneal macrophage profile following injection after MI (FACS); type: in vivo, mouse; settings: IP one day after MI, three days later
Description: as §5
To determine liposomal hemin effect on peritoneal and cardiac macrophages, hemin was formulated in HA-L. Hemin encapsulation efficiency was ˜100% at therapeutic dose levels. Mice were allocated with hemin/HA-L (2 mg hemin/kg body and 50 mg lipid/kg body), empty liposomes (HA-targeted, 50 mg lipid/kg body), free hemin (2 mg/kg body) or saline (100 μl) by intra-peritoneal injection one day after MI. Three days later, mice were euthanized and peritoneal macrophages were aspirated from abdominal cavity. Cells were counted and stained with an anti-mouse F4/80 (as general macrophage marker) and with either PE-conjugated anti-mouse CD86 (as M1 marker) or FITC-conjugated anti-mouse mannose receptor (CD206; as M2 marker). Cells were analyzed by FACS Calibur cytometer using CellQuest™ software.
Following hemin/HA-L (2 mg hemin/kg body and 50 mg lipid/kg body) injection into mice peritoneum (IP), macrophages from the abdominal cavity were isolated and analyzed by flow cytometry.

[4] = system: LPS-activated RAW264.7 cells; assay: In vitro viability assay (XTT/SRB), LPS-activated macrophages; type: cell-based, mouse; settings: hemin dose of 50 μg/ml and liposome dose of 4 mM lipid, 24 hours, XTT; FIG. 7
Method: I. RAW264.7 cells were seeded onto 96 well plates, and the experiments were initiated 24 hours later, at semi-confluency. The regular (serum supplemented) cell growth media was replaced by the same media but containing one of the following treatments: free hemin, drug-free RL-MLV, HA-MLV, hemin-encapsulating RL-MLV and hemin-encapsulating HA-MLV. Wells receiving the regular cell growth media without any addition served as controls. Incubation time was 24 hours, at the end of which the experiment was terminated and cell viability was determined by the XTT or SRB methods. Both methods yielded similar results.
Cell viability was determined using XTT method. […] In addition, cell viability was also determined by the SRB method, which is independent of mitochondrial enzymes (results not shown). Both methods gave similar results.

MCF-7 = assay: Cell viability (XTT and SRB), MCF-7; type: cell-based, human; settings: 24 hours
Method: as §1, §2, §3, §4

HO-1 [5] = assay: Intracellular concentration of active HO-1 in NAR cells (commercial kit); type: cell-based, human; settings: hemin 25 μg/ml (free, or encapsulated in 2 mM lipid), 24 hours; FIG. 15
Method: as §6, with “The” for “To this end, NCI/ADR-Res (NAR) cells were first tested with drug-free regular liposomes and drug-free HA-L, at three liposome doses—4 mM, 10 mM, and 21 mM—lipid, with untreated cells serving as controls. The”
In both cases, as also shown in FIG. 15, cell viability (line crossing open circles) was intact.

## hemin [Free hemin]
RAW264.7
  Cell Viability: 119(±17) %
NAR xenografts
  tumor volume: slight decrease
[1]
  reduction of infarct size (scar tissue) compared with saline: 43%
HO-1 [2]
  HO-1 expression within macrophages: highest HO-1 expression
[3]
  TNF-α secretion: no effect
[3]; listed as free hemin
  TNF-α secretion: high levels of TNF-α
MDA-MB-231; hemin 25 μg/ml
  Cell Viability: 92(±13) %
MDA-MB-231; hemin 50 μg/ml
  Cell Viability: 91(±8) %
COS-7; hemin 25 μg/ml
  Cell Viability: 99(±3) %
COS-7; hemin 50 μg/ml
  Cell Viability: 91(±3) %
NCI/ADR-Res; free hemin 25 μg/ml or drug-free HA-L 2 mM lipid, FIG. 15
  cell viability (SRB): intact
NCI/ADR-Res; hemin 25 μg/ml
  Cell Viability: 120(±7) %
NCI/ADR-Res; hemin 50 μg/ml
  Cell Viability: 110(±6) %
Peritoneal macrophages; 2 mg hemin/kg body and/or 50 mg lipid/kg body, FIG. 8C
  M2 (anti-inflammatory) peritoneal macrophages: 6.4±1.5%
Peritoneal macrophages; FIG. 8D
  M2/M1, peritoneal macrophages: 0.08±0.03
[4]
  Cell Viability: did not significantly affected cell viability
MCF-7; hemin 25 μg/ml
  Cell Viability: 104(±4) %
MCF-7; hemin 50 μg/ml
  Cell Viability: 108(±5) %
HO-1 [5]
  intracellular levels of active HO-1: small, but significant increase
